The data set in a line: activity coefficient (dimensionless); of the first substance listed, at infinite dilution; xn = mol fraction of the nth substance listed. Conditions: 101 kPa, Liquid, Chromatography, x1 = 0.

Structures are written as SMILES. ± gives the expanded uncertainty stated by the source.

As for `CCC(C)CC` [3-methylpentane] + CCCCCC[n+]1ccn(C)c1.FC(F)(F)C(F)(F)[P-](F)(F)(F)(C(F)(F)C(F)(F)F)C(F)(F)C(F)(F)F, the activity coefficient stood at 5.63 ± 0.38 (312.8 K), 5.05 ± 0.34 (332.85 K) and 4.43 ± 0.3 (354.65 K).

As for `CCC(C)CC` [3-methylpentane] + CCCCn1cc[n+](C)c1.O=S(=O)([N-]S(=O)(=O)C(F)(F)C(F)(F)F)C(F)(F)C(F)(F)F, the activity coefficient reads like this: (322.55 K) 8.23 ± 0.56; (342.75 K) 7.79 ± 0.53; (362.65 K) 7.62 ± 0.52.

As for `CCC(C)CC` [3-methylpentane] + CCn1cc[n+](C)c1.CS(=O)(=O)[O-], the activity coefficient came to 157 ± 11 (312.55 K), 135 ± 9.3 (322.45 K) and 115 ± 7.9 (332.45 K).

On to `CC#N` [acetonitrile] + CCCCCCCCCCn1cc[n+](CCCCCCCCCC)c1C.O=S(=O)([N-]S(=O)(=O)C(F)(F)F)C(F)(F)F, for which the activity coefficient came out at 0.47 ± 0.037 (323.1 K), 0.453 ± 0.036 (333.15 K) and 0.44 ± 0.035 (343.15 K).

In the case of `CC#N` [acetonitrile] + CCCCCC[n+]1ccn(C)c1.FC(F)(F)C(F)(F)[P-](F)(F)(F)(C(F)(F)C(F)(F)F)C(F)(F)C(F)(F)F, the activity coefficient reads like this: (312.8 K) 0.295 ± 0.031; (332.85 K) 0.295 ± 0.031; (354.65 K) 0.292 ± 0.031.

In the case of `CC#N` [acetonitrile] + CCCCn1cc[n+](C)c1.O=S(=O)([N-]S(=O)(=O)C(F)(F)C(F)(F)F)C(F)(F)C(F)(F)F, the activity coefficient (322.55 K) worked out at 0.528 ± 0.039, the activity coefficient (342.75 K) came to 0.514 ± 0.038 and the activity coefficient (362.65 K) was 0.504 ± 0.038.

Turning to `CC#N` [acetonitrile] + CCn1cc[n+](C)c1.CS(=O)(=O)[O-], the activity coefficient is 1.26 ± 0.081 (312.55 K), 0.818 ± 0.053 (322.45 K) and 0.836 ± 0.054 (332.45 K).

Consider `c1ccccc1` [benzene] + CCCCCCCCCCn1cc[n+](CCCCCCCCCC)c1C.O=S(=O)([N-]S(=O)(=O)C(F)(F)F)C(F)(F)F, for which the activity coefficient (323.1 K) was 0.429 ± 0.035, the activity coefficient (333.15 K) was found to be 0.431 ± 0.035 and the activity coefficient (343.15 K) was determined as 0.434 ± 0.035.

With `c1ccccc1` [benzene] + CCCCCC[n+]1ccn(C)c1.FC(F)(F)C(F)(F)[P-](F)(F)(F)(C(F)(F)C(F)(F)F)C(F)(F)C(F)(F)F, the activity coefficient by setting is: (312.8 K) 0.517 ± 0.039; (332.85 K) 0.552 ± 0.04; (354.65 K) 0.564 ± 0.041.

Consider `c1ccccc1` [benzene] + CCCCn1cc[n+](C)c1.O=S(=O)([N-]S(=O)(=O)C(F)(F)C(F)(F)F)C(F)(F)C(F)(F)F, for which the activity coefficient (322.55 K) came to 1.01 ± 0.063, the activity coefficient (342.75 K) worked out at 1.02 ± 0.064 and the activity coefficient (362.65 K) turned out to be 1.03 ± 0.065.

As to `CCCCO` [butan-1-ol] + CCCCCCCCCCn1cc[n+](CCCCCCCCCC)c1C.O=S(=O)([N-]S(=O)(=O)C(F)(F)F)C(F)(F)F, the activity coefficient (323.1 K) was determined as 1.38 ± 0.09, the activity coefficient (333.15 K) is 1.2 ± 0.077 and the activity coefficient (343.15 K) worked out at 1.12 ± 0.071.

With `CCCCO` [butan-1-ol] + CCCCCC[n+]1ccn(C)c1.FC(F)(F)C(F)(F)[P-](F)(F)(F)(C(F)(F)C(F)(F)F)C(F)(F)C(F)(F)F, the activity coefficient runs as follows: (312.8 K) 4.9 ± 0.33; (332.85 K) 2.32 ± 0.16; (354.65 K) 1.76 ± 0.12.

Regarding `CCCCO` [butan-1-ol] + CCCCn1cc[n+](C)c1.O=S(=O)([N-]S(=O)(=O)C(F)(F)C(F)(F)F)C(F)(F)C(F)(F)F, the activity coefficient by setting is: (322.55 K) 2.49 ± 0.17; (342.75 K) 2 ± 0.14; (362.65 K) 1.7 ± 0.11.

Take `CCCC=O` [butanal] + CCn1cc[n+](C)c1.CS(=O)(=O)[O-]: the activity coefficient reads like this: (312.55 K) 4.87 ± 0.33; (322.45 K) 4.95 ± 0.34; (332.45 K) 3.51 ± 0.24.

Turning to `CCC(C)=O` [butanone] + CCCCCCCCCCn1cc[n+](CCCCCCCCCC)c1C.O=S(=O)([N-]S(=O)(=O)C(F)(F)F)C(F)(F)F, the activity coefficient is, setting by setting: (323.1 K) 0.318 ± 0.031; (333.15 K) 0.292 ± 0.031; (343.15 K) 0.264 ± 0.03.

In the case of `CCC(C)=O` [butanone] + CCCCCC[n+]1ccn(C)c1.FC(F)(F)C(F)(F)[P-](F)(F)(F)(C(F)(F)C(F)(F)F)C(F)(F)C(F)(F)F, the activity coefficient runs as follows: (312.8 K) 0.204 ± 0.029; (332.85 K) 0.195 ± 0.029; (354.65 K) 0.171 ± 0.029.

With `CCC(C)=O` [butanone] + CCCCn1cc[n+](C)c1.O=S(=O)([N-]S(=O)(=O)C(F)(F)C(F)(F)F)C(F)(F)C(F)(F)F, the activity coefficient amounted to 0.453 ± 0.036 (322.55 K), 0.389 ± 0.034 (342.75 K) and 0.351 ± 0.032 (362.65 K).

Regarding `C1CCCCCC1` [cycloheptane] + CCCCCCCCCCn1cc[n+](CCCCCCCCCC)c1C.O=S(=O)([N-]S(=O)(=O)C(F)(F)F)C(F)(F)F, the activity coefficient (323.1 K) was determined as 3.17 ± 0.22, the activity coefficient (333.15 K) came to 4.46 ± 0.3 and the activity coefficient (343.15 K) amounted to 6.09 ± 0.41.

With `C1CCCCCC1` [cycloheptane] + CCCCCC[n+]1ccn(C)c1.FC(F)(F)C(F)(F)[P-](F)(F)(F)(C(F)(F)C(F)(F)F)C(F)(F)C(F)(F)F, the activity coefficient by setting is: (312.8 K) 9.01 ± 0.61; (332.85 K) 13.2 ± 0.9; (354.65 K) 28.7 ± 2.

`C1CCCCCC1` [cycloheptane] + CCCCn1cc[n+](C)c1.O=S(=O)([N-]S(=O)(=O)C(F)(F)C(F)(F)F)C(F)(F)C(F)(F)F: the activity coefficient (322.55 K) is 19.8 ± 1.4, the activity coefficient (342.75 K) came out at 35.2 ± 2.4 and the activity coefficient (362.65 K) was determined as 56.5 ± 3.9.

Regarding `C1CCCCC1` [cyclohexane] + CCCCCCCCCCn1cc[n+](CCCCCCCCCC)c1C.O=S(=O)([N-]S(=O)(=O)C(F)(F)F)C(F)(F)F, the activity coefficient came to 1.32 ± 0.085 (323.1 K), 1.28 ± 0.083 (333.15 K) and 1.26 ± 0.081 (343.15 K).

Regarding `C1CCCCC1` [cyclohexane] + CCCCCC[n+]1ccn(C)c1.FC(F)(F)C(F)(F)[P-](F)(F)(F)(C(F)(F)C(F)(F)F)C(F)(F)C(F)(F)F, the activity coefficient is 4.78 ± 0.33 (312.8 K), 4.17 ± 0.28 (332.85 K) and 3.62 ± 0.25 (354.65 K).

With `C1CCCCC1` [cyclohexane] + CCCCn1cc[n+](C)c1.O=S(=O)([N-]S(=O)(=O)C(F)(F)C(F)(F)F)C(F)(F)C(F)(F)F, the activity coefficient reads like this: (322.55 K) 7 ± 0.48; (342.75 K) 6.12 ± 0.42; (362.65 K) 5.41 ± 0.37.

As for `CCCCCCCCCC` [decane] + CCCCCCCCCCn1cc[n+](CCCCCCCCCC)c1C.O=S(=O)([N-]S(=O)(=O)C(F)(F)F)C(F)(F)F, the activity coefficient reads like this: (323.1 K) 3.56 ± 0.24; (333.15 K) 3.46 ± 0.24; (343.15 K) 3.33 ± 0.23.

Turning to `CCCCCCCCCC` [decane] + CCCCCC[n+]1ccn(C)c1.FC(F)(F)C(F)(F)[P-](F)(F)(F)(C(F)(F)C(F)(F)F)C(F)(F)C(F)(F)F, the activity coefficient by setting is: (312.8 K) 22.7 ± 1.6; (332.85 K) 19 ± 1.3; (354.65 K) 15.3 ± 1.

As for `CCCCCCCCCC` [decane] + CCCCn1cc[n+](C)c1.O=S(=O)([N-]S(=O)(=O)C(F)(F)C(F)(F)F)C(F)(F)C(F)(F)F, the activity coefficient reads like this: (322.55 K) 37.4 ± 2.6; (342.75 K) 33.3 ± 2.3; (362.65 K) 28 ± 1.9.

On to `ClCCl` [dichloromethane] + CCCCCCCCCCn1cc[n+](CCCCCCCCCC)c1C.O=S(=O)([N-]S(=O)(=O)C(F)(F)F)C(F)(F)F, for which the activity coefficient runs as follows: (323.1 K) 0.33 ± 0.032; (333.15 K) 0.341 ± 0.032; (343.15 K) 0.351 ± 0.032.

For the compound `ClCCl` [dichloromethane] + CCCCCC[n+]1ccn(C)c1.FC(F)(F)C(F)(F)[P-](F)(F)(F)(C(F)(F)C(F)(F)F)C(F)(F)C(F)(F)F, the activity coefficient runs as follows: (312.8 K) 0.66 ± 0.045; (332.85 K) 0.699 ± 0.047; (354.65 K) 0.707 ± 0.047.

Consider `ClCCl` [dichloromethane] + CCCCn1cc[n+](C)c1.O=S(=O)([N-]S(=O)(=O)C(F)(F)C(F)(F)F)C(F)(F)C(F)(F)F, for which the activity coefficient amounted to 0.356 ± 0.033 (322.55 K), 0.436 ± 0.035 (342.75 K) and 0.539 ± 0.039 (362.65 K).

Turning to `ClCCl` [dichloromethane] + CCn1cc[n+](C)c1.CS(=O)(=O)[O-], the activity coefficient is 0.471 ± 0.037 (312.55 K), 0.531 ± 0.039 (322.45 K) and 1.3 ± 0.084 (332.45 K).

`CCOCC` [diethyl ether] + CCCCCCCCCCn1cc[n+](CCCCCCCCCC)c1C.O=S(=O)([N-]S(=O)(=O)C(F)(F)F)C(F)(F)F: the activity coefficient runs as follows: (323.1 K) 0.746 ± 0.049; (333.15 K) 0.771 ± 0.05; (343.15 K) 0.773 ± 0.051.

As for `CCOCC` [diethyl ether] + CCCCCC[n+]1ccn(C)c1.FC(F)(F)C(F)(F)[P-](F)(F)(F)(C(F)(F)C(F)(F)F)C(F)(F)C(F)(F)F, the activity coefficient is, setting by setting: (312.8 K) 0.837 ± 0.054; (332.85 K) 0.866 ± 0.055; (354.65 K) 0.897 ± 0.057.

For `CCOCC` [diethyl ether] + CCCCn1cc[n+](C)c1.O=S(=O)([N-]S(=O)(=O)C(F)(F)C(F)(F)F)C(F)(F)C(F)(F)F, the activity coefficient stood at 1.72 ± 0.12 (322.55 K), 1.7 ± 0.11 (342.75 K) and 1.65 ± 0.11 (362.65 K).

As for `CCOCC` [diethyl ether] + CCn1cc[n+](C)c1.CS(=O)(=O)[O-], the activity coefficient (312.55 K) worked out at 21.8 ± 1.5, the activity coefficient (322.45 K) was found to be 20.4 ± 1.4 and the activity coefficient (332.45 K) was 18 ± 1.2.

On to `CC(C)OC(C)C` [diisopropyl ether] + CCCCCCCCCCn1cc[n+](CCCCCCCCCC)c1C.O=S(=O)([N-]S(=O)(=O)C(F)(F)F)C(F)(F)F, for which the activity coefficient (323.1 K) was determined as 1.12 ± 0.071, the activity coefficient (333.15 K) came to 1.23 ± 0.079 and the activity coefficient (343.15 K) amounted to 1.23 ± 0.079.

Source of the values: the NIST ThermoML archive (doi:10.1021/je200195q).
